We go through 1 molecule from patent US7745656B2, “Stable no-delivering compounds” (Duke University, priority 1998, dated 2010).

In this test the test system is E. coli cells (pTC 190). Kind of test: Bacteriostatic test: nitrosylated compound solution sprayed onto E. coli culture plates. It is filed as cell-based. On the procedure:
Nitrosated 3-mercapto-1,2-propanediol was prepared with TBN bed in the Example 1. The nitrosylated compound was dissolved in 10 mL of deionized water (0.16 M) that had been passed through a CHELEX 100 column and bubbled with argon for 30 minutes. The resulting solution was red.
E. coli cells (pTC 190) were plated onto the culture plates and grown overnight at 40° C. The E. coli cells contained a plasmid encoding for ampicillin resistance. The solution was then sprayed onto a culture plate (LB/Amp/Glucose).
This plate was then sprayed with the nitrosylated compound solution at the 24th hour.

`O=NSCC(O)CO` (stereo not drawn) [nitrosylated 3-mercapto-1,2-propanediol]: the “Bacterial growth on culture plate sprayed with the compound solution” value (0.16 M in deionized water, compound prepared with TBN, LB/Amp/Glucose plate, read after 24 hours) was “growth of a few colonies, all localized on one side of the plate”. The “Bacterial growth on plate with an established E. coli lawn, sprayed at the 24th hour” value (0.16 M solution sprayed on a continuous lawn, read after another 24 hours) is on record as “lawn of colonies that was approximately as dense as prior to application”. Moreover, the Overall antibacterial result (conclusion of Example 3) is recorded as “bacteriostatic”.
